Laboratory results taken from patent EP2077260B1, “AMIDE COMPOUND OR SALT THEREOF, AND BIOFILM FORMATION INHIBITOR, BIOFILM REMOVER AND BACTERICIDE EACH USING THE AMIDE COMPOUND OR SALT THEREOF” (The University of Tokyo, priority 2006, dated 2008).
Values after ≈ are worked out from the molar mass of the structure shown. Structures can show the parent of a compound that is named as a salt. Where two headings read alike, the source gives them in different places.

Legend:
[1] = tested on: Escherichia coli ATCC 25922; experiment: Evaluation test for disinfecting effect, broth dilution method CLSI(M7-A7)2006; type: cell-based
Source text: (§1) The following test compounds were examined for the disinfecting activities against Pseudomonas aeruginosa, E.. Coli and staphylococcus aureus, according to a broth dilution method of "CLSI(M7-A7)2006" (Clinical and Laboratory Standards Institute, M7-A7, Methods for Dilution Antimicrobial Susceptibility Tests for Bacteria That Grow Aerobically; Approved Standard-Seventh Edition, 2006),
(§2) • Pseudomonas aeruginosa PAO1 • Pseudomonas aeruginosa ATCC 27853 • Escherichia coli ATCC 25922 • Staphylococcus aureus ATCC 29213 • Staphylococcus aureus Methicillin resistant (MRSA) ATCC 43300
(§3) Each of above-mentioned bacteria was inoculated in a TSB culture medium (Bacto TSB Broth, product of BD) for overnight cultivation at 37°C. The culture solution was applied to a TSB agar plate for about a 20-hour cultivation to form colonies. Three to five colonies were taken from the agar plate, and an average colony of them was inoculated in a 4mL TSB culture medium.. The colony was cultivated at 35°C until the number of microorganisms became 1 × 10^8 to 2 x 10^8 CFU/mL. The number of microorganisms with time was found by measuring changes in absorbency at 590nm of culture solution with time. When the turbidity became equivalent to 0.5 McFarland standard, it was determined that the number of microorganisms reached the target level = 1 × 10^8 to 2 × 10^8 CFU/mL.
(§4) The bacillus culture solution thus obtained was diluted 10-fold within 15 minutes, and a 5µL portion was inoculated in each well of an evaluation 96-well microplate. This 96-well microplate was a sterilized 96-well microplate with U-shaped bottoms (Falcon 35-3918: product of BD), and each well was filled with a 100µL portion of MH culture medium (BBL MH Broth: product of BD). Within 15 minutes after inoculation of the bacillus culture solutions, the test compounds were supplied to the well in a manner of 2-fold graded dilution. The cultivation was then carried out at 37°C for 18 hours.
(§5) The MIC was determined as follows. "S (susceptible)" indicates a concentration which caused 80% or more reduction in the diameter of the aggregation deposited in the bottom of the well, compared to when the test liquid is not used. "R (Resistant)" indicates a concentration that caused less than 80% reduction in diameter. The reduction was measured visually.. "I(Intermediate)" indicates a concentration that cannot be measured visually

[2] = tested on: Pseudomonas aeruginosa ATCC 27853; experiment: as above; type: cell-based
Source text: as §1, §2, §3, §4, §5

[3] = tested on: Pseudomonas aeruginosa PAO1; experiment: as above; type: cell-based
Source text: as §1, §2, §3, §4, §5

[4] = tested on: Staphylococcus aureus ATCC 29213; experiment: as above; type: cell-based
Source text: as §1, §2, §3, §4, §5

[5] = tested on: Staphylococcus aureus Methicillin resistant (MRSA) ATCC 43300; experiment: as above; type: cell-based
Source text: as §1, §2, §3, §4, §5

[6] = tested on: Staphylococcus aureus ATCC 29213; conditions: Publicly-known data, CLSI(M100-S16)2006 liquid dilution method; cited from earlier work
[7] = tested on: Porphyromonas gingivalis 381-strain (clinical strain); experiment: Evaluation test for biofilm formation inhibition effect against periodontitis pathogenic bacteria (flow cell system, HA disks, turbidity); type: cell-based; conditions: for Mean OD Value: turbidity at 550 nm of biofilm peeled off HA disks; for inhibition at 100 µM: Porphyromonas gingivalis, 336 h, read-out: Biofilm Formation Inhibition Rate(%)
Procedure: As with Experiment Example 1, using the flow cell system of FIG. 1, an inhibitory effect against biofilm formation by periodontitis pathogenic bacteria was evaluated for each of the amide compounds produced in Production Examples 1, 3, 5, and 6 (Compounds 1a-1, 1b-1, 1c-1, 1c-2).
Periodontitis pathogenic bacteria Porphyromonas gingivalis 381-strain (clinical strain) was used..
A GAM culture medium containing hemin 5µg/L and menadione 1µg/L was used.
The 381-strain was inoculated in the GAM culture medium, and cultivated until stationary phase (OD550=1.8). Then the culture medium was diluted 20-fold by a fresh GAM culture medium containing the above-mentioned substances.
The test liquid was prepared by dissolving 100µM of each of the Compounds 1a-1, 1b-1, 1c-1, or 1c-2 according to Production Examples 1, 3, 5 and 6 and 100µM of Comparative Compounds 1 and 2 as comparative examples in dimethyl sulfoxide (DMSO), and supplying the resulting DMSO solutions to the above-mentioned bacterial suspensions so that the concentration of each compound becomes 0.1%(v/v).
A DMSO not containing the compound was used as a control test liquid.
The glass cell (4) of the flow cell system (see FIG. 1) was replaced with a stainless cell (3 x 7 x 120mm), and 10 hydroxyapatite (HA) disks (6mm in diameter, 1mm in thickness) were placed in the cell. The HA disks had been subjected to salivary treatment overnight. Each of the test liquids and control test liquids was circulated in the system at a flow rate of 8mL/min for 14 days, Note that the test liquids and the control test liquids were replaced with fresh liquids every two days.
After the cultivation, the HA disks were dipped in 300µL of sterile distilled water, and treated by supersonic wave for 30 minutes at 4°C, The biofilms formed in the HA disks were peeled off and suspended in distilled water. Then, 100µL of the suspension liquid was measured for the turbidity with an absorptiometer (C07500 colorimeter, product of Funakoshi) (measurement wavelength = 550 nm).
A mean OD was found based on the resulting OD values, excluding the minimum and maximum values, Also, a mean value of the turbidities for the Control Test Liquids was found in the same manner as the control mean OD value. A biofilm formation inhibition rate (Inhibition Rate) was found by the following formula. Biofilm Formation Inhibition Rate (%) = […] [formula]

[8] = ATCC25922, I (Intermediate): concentration that cannot be measured visually, 37°C, 18 hours, read-out: MIC (µg/mL) I
[9] = ATCC25922, R (Resistant): concentration that caused less than 80% reduction in diameter of the aggregation, 37°C, 18 hours, read-out: MIC (µg/mL) R
[10] = ATCC25922, S (susceptible): concentration which caused 80% or more reduction in diameter of the aggregation, 37°C, 18 hours, read-out: MIC (µg/mL) S
[11] = ATCC27853, I (Intermediate): concentration that cannot be measured visually, 37°C, 18 hours, read-out: MIC (µg/mL) I
[12] = ATCC27853, R (Resistant): concentration that caused less than 80% reduction in diameter of the aggregation, 37°C, 18 hours, read-out: MIC (µg/mL) R
[13] = ATCC27853, S (susceptible): concentration which caused 80% or more reduction in diameter of the aggregation, 37°C, 18 hours, read-out: MIC (µg/mL) S
[14] = PAO1, R (Resistant): concentration that caused less than 80% reduction in diameter of the aggregation, 37°C, 18 hours, read-out: MIC (µg/mL) R
[15] = PAO1, S (susceptible): concentration which caused 80% or more reduction in diameter of the aggregation, 37°C, 18 hours, read-out: MIC (µg/mL) S
[16] = ATCC29213, R (Resistant): concentration that caused less than 80% reduction in diameter of the aggregation, 37°C, 18 hours, read-out: MIC (µg/mL) R
[17] = ATCC29213, S (susceptible): concentration which caused 80% or more reduction in diameter of the aggregation, 37°C, 18 hours, read-out: MIC (µg/mL) S
[18] = R (Resistant): concentration that caused less than 80% reduction in diameter of the aggregation, 37°C, 18 hours, read-out: MIC (µg/mL) R
[19] = 100µM, 14 days, relative to control test liquid (Mean Comparison OD Value)
[20] = ATCC25922, 18 h, read-out: MIC (µg/mL) R
[21] = ATCC25922, 18 h, read-out: MIC (µg/mL) S
[22] = ATCC27853, 18 h, read-out: MIC (µg/mL) I
[23] = ATCC27853, 18 h, read-out: MIC (µg/mL) R
[24] = ATCC27853, 18 h, read-out: MIC (µg/mL) S
[25] = PAO1, 18 h, read-out: MIC (µg/mL) I
[26] = PAO1, 18 h, read-out: MIC (µg/mL) R
[27] = PAO1, 18 h, read-out: MIC (µg/mL) S
[28] = ATCC29213, 18 h, read-out: MIC (µg/mL) I
[29] = ATCC29213, 18 h, read-out: MIC (µg/mL) R
[30] = ATCC29213, 18 h, read-out: MIC (µg/mL) S

SMILES | Mean OD Value ([7]; 100µM, 14 days) | MIC [1, 20] [µg/mL] | MIC [1, 21] [µg/mL] | MIC [2, 23] [µg/mL] | MIC [2, 24] [µg/mL] | MIC [3, 26] [µg/mL] | MIC [3, 27] [µg/mL] | MIC [4, 29] [µg/mL] | MIC [4, 30] [µg/mL] | MIC ([5]; 18 h, read-out: MIC (µg/mL) R) [µg/mL] | MIC ([5]; 18 h, read-out: MIC (µg/mL) S) [µg/mL] | further results
CC[C@H]1OC(=O)[C@H](C)[C@@H](O[C@H]2C[C@@](C)(OC)[C@@H](O)[C@H](C)O2)[C@H](C)[C@@H](O[C@@H]2O[C@H](C)C[C@H](N(C)C)[C@H]2O)[C@](C)(O)C[C@@H](C)CN(C)[C@H](C)[C@@H](O)[C@]1(C)O [AZM, Azithromycin] |  |  |  |  |  |  |  |  |  |  |  | MIC [1, 8]: 4 µg/mL (≈ 5.34 µM); MIC [1, 9]: ≤ 2 µg/mL; MIC [1, 10]: ≥ 8 µg/mL; MIC [2, 11]: 64 µg/mL (≈ 85.4 µM); MIC [2, 12]: ≤ 32 µg/mL; MIC [2, 13]: ≥ 128 µg/mL; MIC ([3]; PAO1, I (Intermediate): concentration that cannot be measured visually, 37°C, 18 hours, read-out: MIC (µg/mL) I): 64 µg/mL (≈ 85.4 µM); MIC [3, 14]: ≤ 32 µg/mL; MIC [3, 15]: ≥ 128 µg/mL; MIC ([4]; ATCC29213, I (Intermediate): concentration that cannot be measured visually, 37°C, 18 hours, read-out: MIC (µg/mL) I): 1 µg/mL (≈ 1.34 µM); MIC [4, 16]: ≤ 0.5 µg/mL; MIC [4, 17]: ≥ 2 µg/mL; MIC [5, 18]: ≤ 1020 µg/mL; MIC (µg/mL) from M100-S16 [6]: 0.5 to 2 µg/mL
CC1(C)S[C@@H]2[C@H](NC(=O)C(C(=O)O)c3ccccc3)C(=O)N2[C@H]1C(=O)O (stereo partly drawn) [CBPC, Carbenicillin] |  |  |  |  |  |  |  |  |  |  |  | MIC [1, 8]: 16 µg/mL (≈ 42.3 µM); MIC [1, 9]: ≤ 8 µg/mL; MIC [1, 10]: ≥ 32 µg/mL; MIC [2, 11]: 128 µg/mL (≈ 338 µM); MIC [2, 12]: ≤ 64 µg/mL; MIC [2, 13]: ≥ 256 µg/mL; MIC [3, 14]: ≤ 64 µg/mL; MIC [3, 15]: ≥ 128 µg/mL; MIC [4, 16]: ≤ 8 µg/mL; MIC [4, 17]: ≥ 16 µg/mL; MIC ([5]; I (Intermediate): concentration that cannot be measured visually, 37°C, 18 hours, read-out: MIC (µg/mL) I): 32 µg/mL (≈ 84.6 µM); MIC [5, 18]: ≤ 16 µg/mL; MIC ([5]; S (susceptible): concentration which caused 80% or more reduction in diameter of the aggregation, 37°C, 18 hours, read-out: MIC (µg/mL) S): ≥ 64 µg/mL
CCCCCCCCCCCC(=O)NC1CCNC1 (stereo not drawn) [Compound 1a-1, N-(pyrrolidin-3-yl) dodecanoyl amide] | 0.49 |  |  |  |  |  |  |  |  |  |  | inhibition at 100 µM [7]: 37.4%
CCCCCCCCCCCC(=O)NC1CCNCC1 [Compound 1b-1, N-(piperidin-4-yl) dodecanoyl amide] | 0.32 |  |  |  |  |  |  |  |  |  |  | inhibition at 100 µM [7]: 19.1%
CCCCCCCCCCCC(=O)NN1CCCC1 [Compound 1c-1, N-(pyrrolidin-1-yl) dodecanoyl amide] | 0.522 |  |  |  |  |  |  |  |  |  |  | inhibition at 100 µM [7, 19]: 11%
CCCCCCCCCC(O)CC(=O)NN1CCCC1 (stereo not drawn) [Compound 1c-2, N-(pyrrolidin-1-yl)-3-hydroxy dodecanoyl amide] | 0.041 |  |  |  |  |  |  |  |  |  |  | inhibition at 100 µM [7, 19]: 87.8%
CCCCCCCCCCCC(=O)NC1CCNC1 (stereo not drawn) [Hydrochloride salt of Compound 1a-1, N-(pyrrolidin-3-yl) dodecanoyl amide] |  | ≤ 4 | ≥ 16 | ≤ 32 | ≥ 128 | ≤ 32 | ≥ 128 | ≤ 4 | ≥ 16 | ≤ 4 | ≥ 16 | MIC ([1]; ATCC25922, 18 h, read-out: MIC (µg/mL) I): 8 µg/mL; MIC [2, 22]: 64 µg/mL; MIC [3, 25]: 64 µg/mL; MIC [4, 28]: 8 µg/mL; MIC ([5]; 18 h, read-out: MIC (µg/mL) I): 8 µg/mL
CCCCCCCCCC(=O)NC1CCNC1 (stereo not drawn) [Hydrochloride salt of Compound 1a-2, N-(pyrrolidin-3-yl) decanoyl amide] |  | ≤ 128 | ≥ 256 | ≤ 512 | ≥ 1020 | ≤ 512 | ≥ 1020 | ≤ 128 | ≥ 256 | ≤ 128 | ≥ 256 | 
CCCCCCCCCCCC(=O)NC1CCNCC1 [Hydrochloride salt of Compound 1b-1, N-(piperidin-4-yl) dodecanoyl amide] |  | ≤ 8 | ≥ 16 | ≤ 32 | ≥ 128 | ≤ 32 | ≥ 128 | ≤ 4 | ≥ 16 | ≤ 4 | ≥ 16 | MIC [2, 22]: 64 µg/mL; MIC [3, 25]: 64 µg/mL; MIC [4, 28]: 8 µg/mL; MIC ([5]; 18 h, read-out: MIC (µg/mL) I): 8 µg/mL
CCCCCCCCCC(=O)NC1CCNCC1 [Hydrochloride salt of Compound 1b-2, N-(piperidin-4-yl) decanoyl amide] |  | ≤ 128 | ≥ 256 | ≤ 512 | ≥ 1020 | ≤ 512 | ≥ 1020 | ≤ 128 | ≥ 256 | ≤ 128 | ≥ 256 | 
